This is an account of results in patent US11672762B2, “Onapristone extended-release compositions and methods” (Context Biopharma Inc., priority 2014, dated 2023).

Series [1] concerns gonadotrophin (LH and FSH) secretion. Particulars: immediate release doses of 1 and 10 mg; cited from earlier work.
The conditions of series [2]: human, in vivo. The text has this:
PK results for onapristone are available for 52 patients from the a first study (ARN-AR18-CT-101) (Table 1). Variability for onapristone PK is moderate and greater for the IR versus the ER formulation. Onapristone Cmax and AUC values for the ER form are proportional to administered dose (FIGS. 1 and 2). Based on observed mean AUC values, oral bioavailability for the ER versus the IR formulation is approximately 50% (FIG. 24). A later Tmax value for the ER form results in somewhat lower dose-corrected Cmax values for the ER form compared to the IR form. Steady state is attained before day 8 with a mean t % of 7.5 hrs.
Table 1 compares descriptive statistics for the primary onapristone pharmacokinetic exposure parameters following single oral doses from 10 to 50 mg of extended-release onapristone compared to that from 100 mg immediate-release onapristone (Study ARN-AR18-CT-101). […]
Blood samples were collected at 0, 1, 2, 3, 4, 6, 8, 12 (before next BID dose), and 24 (before next dose—for 100 mg IR only) hours post-ONA, as well as hour 0 on days 8, 29 and 57 (just before drug intake). Plasma concentrations of ONA, mono-demethylated onapristone (M1) and other metabolites in plasma and urine were analyzed with a validated ultra-performance liquid chromatography with tandem mass spectrometry detection (UPLC-MS/MS) assay. […]

The conditions of series [3]: original immediate release (IR) formulation; cited from earlier work.

`CN(C)c1ccc([C@H]2C[C@]3(C)[C@@H](CC[C@]3(O)CCCO)[C@@H]3CCC4=CC(=O)CCC4=C32)cc1` [onapristone, (8S,11R,13R,14S,17S)-11-[4-(dimethylamino)phenyl]-17-hydroxy-17-(3-hydroxypropyl)-13-methyl-1,2,6,7,8,11,12,14,15,16-decahydrocyclopenta[a]phenanthren-3-one]: the “effect on gonadotrophin (LH, FSH) secretion” value in series [1] is “dose-dependent effect of onapristone on suppression of gonadotrophin”. In series [2], this compound came in with a Steady state attained of under 8 days and a mean t % of 7.5 h. In addition, the tolerability result in series [3] was “well-tolerated with the exception of abnormalities in liver function tests”.
